For 1 substance, Viscosity difference rate and Average particle size results are on record in US20240148625A1, “Estolide Esters For The Cosmetic Treatment Of Skin” (CLARIANT INTERNATIONAL LTD, priority 2020, published 2024).

A short description of data set [1]: Pigment wetting: viscosity difference rate of pigment dispersion. The data set is classed as physicochemical. As to conditions: 65% emollient with 35% red iron oxide; rheometer 20.0° C., 10.0 1/s; lower = better pigment wetting. From the text: The viscosity of a pigment dispersion in oil is negatively correlated to the dispersion efficacy of the carrier liquid emollient. Therefore, decreased viscosities confirm the homogeneity of the dispersion. To calculate the viscosity difference rate between the pure emollient without added pigment and the pigment dispersion, the following formula will be used: Viscosity difference rate=(viscosity value after pigment dispersion−viscosity value before pigment dispersion)/(viscosity value before pigment dispersion) The lower the viscosity difference rate the better the pigment wetting. Mixtures of 65% emollient with 35% pigment (red iron oxide) were homogenized and analyzed*. [table]

Data set [2] in a line: Pigment dispersion: particle size by Grindometer. The data set is classed as physicochemical. As to conditions: 65% emollient with 35% yellow iron oxide, next day, average of 3. From the text: Mixtures of 65% emollient with 35% pigment (yellow iron oxide) were homogenized and analyzed*. [table]

In turn, Pentaerythrityl Tetraisostearate came in with a Viscosity difference rate in data set [1] of 21. Further, the Average particle size in data set [2] came to 31 μm.
